Data reported in US7119262B1, “Production of transgenic poinsettia” (priority 1997, dated 2006).
Read-outs that look alike come from different tables or passages of the source. Where no end group is shown, it is not given here.

Tests used:
[1] = tested on: Bemisia; experiment: Whitefly artificial feeding study with tryptamine-supplemented diets; type: in vivo, Bemisia tabaci; details: artificial diet
Method: To assess whether tryptamine was acutely toxic to whitefly, artificial feeding studies were conducted in which whiteflies were fed artificial diets supplemented with a range of tryptamine concentrations.

[2] = tested on: Pseudomonas syringae; details: 24 h
[3] = tested on: Erwinia carotovora; details: 24 h
[4] = tested on: Phytophthora parasitica (petunia)
[5] = tested on: Fusarium graminearum; details: non-germinated spores, 24 hrs
[6] = tested on: Rhyzoctonia solani R2; details: 24 h
[7] = tested on: Thielaviopsis basicola; details: 24 h
[8] = tested on: Botrytis cinerea; details: 24 h
[9] = tested on: Phytophthora parasitica (vinca); details: vinca isolate, 24 hrs
[10] = tested on: Fusarium solani; details: 24 h
[11] = tested on: bacterial and fungal phytopathogens; experiment: In vitro anti-microbial activity of lytic peptides (statement in words); type: cell-based
[12] = tested on: ethylene-induced epinasty; details: plants sprayed with 4 mM solution, 18 hrs later exposed to ethylene for 24 hours
Method: To test for ethylene sensitivity, untransformed and transgenic poinsettia plants were exposed to 15 μl/liter ethylene for 24 hours to induce epinasty.
At 18 hrs after STS treatment, the STS-treated poinsettias were exposed to ethylene for 24 hours.

[13] = petunia isolate, germinated spores, 24 hrs

NCCc1c[nH]c2ccccc12 [Tryptamine, tryptamine]
tryptamine concentration toxic to Bemisia [1]: 50 to 100 µg/mL

GIGKFLHSAKKFGKAFVGEIMNS [Mag 2, magainin 2, reference compound]
Minimum Inhibitory Concentration [2]: 32 µg/mL
Minimum Inhibitory Concentration [3]: 32 µg/mL
Minimum Inhibitory Concentration ([4]; 24 h): >128 µg/mL
Minimum Inhibitory Concentration [5]: 4 to 8 µg/mL
Minimum Inhibitory Concentration [6]: 16 to 32 µg/mL

GIGKFLKSAKKFGKAFVKILNS [MSI-99]
Minimum Inhibitory Concentration ([4]; 24 h): 8 to 16 µg/mL
Minimum Inhibitory Concentration [5]: 4 µg/mL
Minimum Inhibitory Concentration [7]: 4 µg/mL
Minimum Inhibitory Concentration [8]: 8 µg/mL
Minimum Inhibitory Concentration [6]: 16 µg/mL

GMASKAGAIAGKIAKVALKAL-OH [PGL]
Minimum Inhibitory Concentration [2]: >64 µg/mL
Minimum Inhibitory Concentration [3]: 32 µg/mL
Minimum Inhibitory Concentration ([9]; germinated spores): >128 µg/mL
Minimum Inhibitory Concentration ([9]; non-germinated spores): >256 µg/mL
Minimum Inhibitory Concentration [4, 13]: >128 µg/mL
Minimum Inhibitory Concentration [5]: 4 to 8 µg/mL
Minimum Inhibitory Concentration [6]: 16 to 32 µg/mL

KRKRAVKRVGRRLKKLARKIARLGVAF [Line D5-C, D5-C]
Minimum Inhibitory Concentration ([9]; germinated spores): 16 to 32 µg/mL
Minimum Inhibitory Concentration ([9]; non-germinated spores): 16 µg/mL
Minimum Inhibitory Concentration [4, 13]: 16 to 32 µg/mL
Minimum Inhibitory Concentration [10]: 4 µg/mL
Minimum Inhibitory Concentration [7]: 16 µg/mL
Minimum Inhibitory Concentration [6]: 32 to 64 µg/mL

MSI-55 (KIAGKIAKIAGKIAKIAGKIA)
antibacterial and anti-fungal activity in vitro [11]: potent antibacterial and anti-fungal activity

silver thiosulfate [STS]
signs of epinasty or wilting after ethylene treatment [12]: little, if any, signs of epinasty or wilting
